Ten compounds from patent US20080214807A1, “Substituted Spiro Compounds and their Use for Producing Drugs” (Gruenenthal GmbH, priority 2005, published 2008) can be followed below.

Test [1] deals with T1, VR1 (human) (Homo sapiens, UniProt Q8NER1).
T1 construct: expressed in transfected cells; host or cells: CHO K1 cells (ECACC)
Kind of test: Functional testing on vanilloid receptor VR1, FLIPR Ca2+ inflow assay (CHO K1 cells stably transfected with the VR1 gene). Particulars: test compound 10 μM; for inhibition at 10 µM / activation at 10 µM: CHO-K1; for inhibition at 10 µM: read-out: VR1 (human) (% inhibition compared to 10 μM CP); for activation at 10 µM: read-out: VR1 (human) (% stimulation compared to 10 μM CP). It counts as cell-based. From the text: II. Functional Testing Carried out on the Vanilloid Receptor (VR1)
The agonistic or antagonistic effect of the substances to be tested can also be determined on the vanilloid receptor (VR1) using the following assay. According to this assay, the Ca^2+ inflow is quantified through the channel using a Ca^2+-sensitive dye (type Fluo-4, Molecular Probes Europe BV, Leiden, Netherlands) in a fluorescent imaging plate reader (FLIPR, Molecular Devices, Sunnyvale, USA).
Chinese hamster ovary cells (CHO K1 cells, European Collection of Cell Cultures (ECACC) United Kingdom) were stably transfected with the VR1 gene. For functional testing, these cells were plated out on poly-D-lysine-coated black 96 well plates having a clear base (BD Biosciences, Heidelberg, Germany) at a density of 25,000 cells/well. The cells were incubated overnight at 37° C. and 5% CO2 in a culture medium (Ham's F12 nutrient mixture, 10-% by volume of FCS (foetal calf serum), 18 μg/ml L-proline). The next day the cells were incubated with Fluo-4 (Fluo-4 2 μM, 0.01% by volume of Pluronic F127, Molecular Probes in HBSS (Hank's buffered saline solution), Gibco Invitrogen GmbH, Karlsruhe, Germany) for 30 minutes at 37° C. Subsequently, the plates were washed 3 times with HBSS buffer and after further incubation for 15 minutes at room temperature used for Ca^2+ measurement in a FLI PR assay. The Ca^2+-dependent fluorescence was measured before and after the addition of the substances to be tested (λex wavelength=488 nm, λem=540 nm). Quantification was carried out by measuring the highest fluorescence intensity (FC, Fluorescence Counts) over time.
The FLIPR protocol consists of 2 substance additions. First the compounds to be tested (10 μM) were pipetted onto the cells and the Ca^2+ inflow was compared with the control (capsaicin 10 μM) (% activation based on the Ca^2+ signal after the addition of 10 μM capsaicin). After 5 minutes' incubation, 100 nM of capsaicin were administered and the Ca^2+ inflow was also determined.
Desensitising agonists and antagonists led to suppression of the Ca^2+ inflow. The % inhibition was calculated compared to the maximum achievable inhibition with 10 μM of capsaicin.

Test [2] deals with T2, rat-species vanilloid receptor 1 (VR1/TRPV1) (Rattus norvegicus, UniProt O35433).
T2 construct: endogenous in cells; host or cells: primary cultured rat dorsal root ganglion cells
T2 sequence (O35433 whole entry): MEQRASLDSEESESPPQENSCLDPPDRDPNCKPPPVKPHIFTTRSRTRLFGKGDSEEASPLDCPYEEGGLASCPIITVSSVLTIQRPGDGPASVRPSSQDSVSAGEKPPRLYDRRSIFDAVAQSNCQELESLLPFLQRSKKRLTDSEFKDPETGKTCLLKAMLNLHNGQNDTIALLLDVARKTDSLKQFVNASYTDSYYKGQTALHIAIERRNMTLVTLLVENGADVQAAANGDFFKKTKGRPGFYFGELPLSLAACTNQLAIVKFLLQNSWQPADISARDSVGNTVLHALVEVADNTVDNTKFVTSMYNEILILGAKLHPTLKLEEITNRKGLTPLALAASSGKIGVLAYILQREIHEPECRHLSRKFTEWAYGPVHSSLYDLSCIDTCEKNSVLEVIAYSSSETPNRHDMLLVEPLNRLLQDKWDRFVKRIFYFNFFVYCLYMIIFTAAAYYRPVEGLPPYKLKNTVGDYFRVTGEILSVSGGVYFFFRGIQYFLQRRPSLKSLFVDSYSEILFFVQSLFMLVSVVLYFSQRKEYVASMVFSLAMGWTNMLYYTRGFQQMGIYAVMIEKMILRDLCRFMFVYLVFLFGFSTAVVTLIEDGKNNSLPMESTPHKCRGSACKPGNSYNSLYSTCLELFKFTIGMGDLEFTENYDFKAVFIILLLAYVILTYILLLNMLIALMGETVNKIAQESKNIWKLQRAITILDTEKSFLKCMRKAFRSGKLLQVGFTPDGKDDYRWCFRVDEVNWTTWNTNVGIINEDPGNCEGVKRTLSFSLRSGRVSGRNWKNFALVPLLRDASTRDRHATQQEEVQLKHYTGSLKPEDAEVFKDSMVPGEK
Kind of test: Functional testing on vanilloid receptor 1 (VR1/TRPV1), FLIPR Ca2+ inflow assay in rat dorsal root ganglia cells. Particulars: test compound 10 μM; for inhibition at 10 µM: read-out: VR1 (rat) (% inhibition compared to 10 μM CP); for activation at 10 µM: read-out: VR1 (rat) (% stimulation compared to 10 μM CP). It counts as cell-based. From the text:
I. Functional Testing Carried out on the Vanilloid Receptor 1 (VRI/TRPV1 Receptor)
The agonistic or antagonistic effect of the substances to be tested can be determined on the rat-species vanilloid receptor 1 (VR1/TRPV1) using the following assay. According to this assay, the Ca^2+ inflow is quantified through the receptor channel using a Ca^2+-sensitive dye (type Fluo-4, Molecular Probes Europe BV, Leiden, Netherlands) in a fluorescent imaging plate reader (FLIPR, Molecular Devices, Sunnyvale, USA).
Complete medium: 50 mL HAMS F12 nutrient mixture (Gibco Invitrogen GmbH, Karlsruhe, Germany) with
10% by volume of FCS (foetal calf serum, Gibco Invitrogen GmbH, Karlsruhe, Germany, […]);
2 mM L-glutamine (Sigma, Munich, Germany);
1% by weight of AA solution (antibiotic/antimyotic solution, PAA, Pasching, Austria) and 25 ng/ml NGF medium (2.5 S, Gibco Invitrogen GmbH, Karlsruhe, Germany)
Cell culture plate: Poly-D-lysine-coated, black 96 well plates having a clear base (96 well black/clear plate, BD Biosciences, Heidelberg, Germany) were additionally coated with laminin (Gibco Invitrogen GmbH, Karlsruhe, Germany), the laminin being diluted with PBS (Ca—Mg-free PBS, Gibco Invitrogen GmbH, Karlsruhe, Germany) to a concentration of 100 μg/mL. Aliquots having a laminin concentration of 100 μg/mL were removed and stored at −20° C. The aliquots were diluted with PBS in a ratio of 1:10 to 10 μg/mL laminin and in each case 50 μL of the solution were pipetted into a recess in the cell culture plate. The cell culture plates were incubated for at least two hours at 37° C., the excess solution was removed by suction-filtration and the recesses were each washed twice with PBS. The coated cell culture plates were stored with excess PBS which was not removed until just before the feeding of the cells.
Preparation of the Cells:
The vertebral column was removed from decapitated rats and placed immediately into cold HBSS buffer (Hank's buffered saline solution, Gibco Invitrogen GmbH, Karlsruhe, Germany), i.e. buffer located in an ice bath, mixed with 1% by volume (percent by volume) of an AA solution (antibiotic/antimyotic solution, PAA, Pasching, Austria). The vertebral column was cut longitudinally and removed together with fasciae from the vertebral canal. Subsequently, the dorsal root ganglia (DRG) were removed and again stored in cold HBSS buffer mixed with 1% by volume of an AA solution. The DRG, from which all blood remnants and spinal nerves had been removed, were transferred in each case to 500 μL of cold type 2 collagenase (PAA, Pasching, Austria) and incubated for 35 minutes at 37° C. After the addition of 2.5% by volume of trypsin (PAA, Pasching, Austria), incubation was continued for 10 minutes at 37° C. After complete incubation, the enzyme solution was carefully pipetted off and 500 μL of complete medium were added to each of the remaining DRG. The DRG were in each case suspended several times, drawn through cannulae No. 1, No. 12 and No. 16 using a syringe and transferred to a 50 mL Falcon tube which was filled up to 15 mL with complete medium. The contents of each Falcon tube was in each case filtered through a 70 μm Falcon filter element and centrifuged for 10 minutes at 1,200 rpm and room temperature. The resulting pellet was in each case taken up in 250 μL of complete medium and the number of cells determined.
The number of cells in the suspension was set to 3×10^5 per mL and 150 μL of this suspension were in each case introduced into a recess in the cell culture plates coated as described hereinbefore. In the incubator the plates were left for two to three days at 37° C., 5% by volume of CO2 and 95% relative humidity. […]

Where [3] appears, read: 5 min incubation, then 100 nM capsaicin, relative to maximum achievable inhibition with 10 μM capsaicin.
[4] abbreviates: Ca2+ inflow relative to signal of 10 μM capsaicin (CP).

T1 sequence (Q8NER1 whole entry): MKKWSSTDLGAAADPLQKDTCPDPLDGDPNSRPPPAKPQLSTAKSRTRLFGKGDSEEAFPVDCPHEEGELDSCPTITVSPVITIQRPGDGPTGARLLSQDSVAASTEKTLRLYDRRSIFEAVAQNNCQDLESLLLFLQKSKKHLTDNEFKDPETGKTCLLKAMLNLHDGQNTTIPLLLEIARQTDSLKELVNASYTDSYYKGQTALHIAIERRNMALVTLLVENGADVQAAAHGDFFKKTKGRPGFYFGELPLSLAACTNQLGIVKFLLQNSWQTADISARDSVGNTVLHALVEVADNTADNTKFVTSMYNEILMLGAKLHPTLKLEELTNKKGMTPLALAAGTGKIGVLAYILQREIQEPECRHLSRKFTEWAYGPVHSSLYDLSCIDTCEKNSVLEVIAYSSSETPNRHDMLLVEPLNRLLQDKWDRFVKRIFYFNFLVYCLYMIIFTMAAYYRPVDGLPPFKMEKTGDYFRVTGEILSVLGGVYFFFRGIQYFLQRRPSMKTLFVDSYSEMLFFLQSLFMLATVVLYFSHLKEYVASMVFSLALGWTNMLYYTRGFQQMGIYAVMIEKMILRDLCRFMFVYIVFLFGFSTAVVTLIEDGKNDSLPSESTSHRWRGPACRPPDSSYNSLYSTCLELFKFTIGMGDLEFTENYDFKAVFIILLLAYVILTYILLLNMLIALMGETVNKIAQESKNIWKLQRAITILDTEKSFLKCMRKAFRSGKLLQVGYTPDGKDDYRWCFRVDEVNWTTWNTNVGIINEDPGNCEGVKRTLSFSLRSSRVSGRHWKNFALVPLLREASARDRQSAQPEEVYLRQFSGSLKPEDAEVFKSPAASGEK

Take `CC(C)c1ccccc1NC(=O)N1CCC2(CC1)CC(C(=O)N1CCN(c3ncccc3Cl)CC1)=NO2` [Example 61, 3-[4-(3-chloropyridin-2-yl)piperazine-1-carbonyl]-1-oxa-2,8-diazaspiro[4.5]dec-2-ene-8-carboxylic acid-(2-isopropylphenyl)amide]: the inhibition at 10 µM in test [1] (setting [3]) is -15.1%; in test [2] (setting [3]) it was 47%. The results for the activation at 10 µM in test [1] (setting [4]) and in test [2] (setting [4]) were 0.08% and 0.47%, respectively.
As for `COc1cccc(NC(=O)N2CCC3(CC2)CC(C(=O)Nc2ccc(Cl)cn2)=NO3)c1` [Example 18, 1-oxa-2,8-diazaspiro[4.5]dec-2-ene-3,8-dicarboxylic acid-3-[(5-chloropyridin-2-yl)amide]-8-[(3-methoxyphenyl)amide]], the “VR1 (human) (% inhibition compared to 10 μM CP)” value in test [1] (setting [3]) worked out at 11.17%. Besides, in test [1] (setting [4]), the “VR1 (human) (% stimulation compared to 10 μM CP)” value was found to be 0.67%. In addition, in test [2] (setting [3]), the “VR1 (rat) (% inhibition compared to 10 μM CP)” value was 34.24%. Further, in test [2] (setting [4]), the “VR1 (rat) (% stimulation compared to 10 μM CP)” value is listed as 4.68%.
Consider `O=C(Nc1ccc(S(F)(F)(F)(F)F)cc1)N1CCC2(CC1)CC(C(=O)N1CCN(c3ncccc3Cl)CC1)=NO2` [Example 229, 3-[4-(3-chloropyridin-2-yl)piperazine-1-carbonyl]-1-oxa-2,8-diazaspiro[4.5]dec-2-ene-8-carboxylic acid-(4-pentafluorosulphanylphenyl)amide], for which the inhibition at 10 µM in test [1] (setting [3]) was 37%; in test [2] (setting [3]), 94%. Also, the activation at 10 µM was determined as 10% in test [1] (setting [4]) and 45% in test [2] (setting [4]).
For `O=C(Nc1cc(C(F)(F)F)ccc1Cl)N1CCC2(CC1)CC(C(=O)N1CCN(c3ncccc3Cl)CC1)=NO2` [Example 22, 3-[4-(3-chloropyridin-2-yl)piperazine-1-carbonyl]-1-oxa-2,8-diazaspiro[4.5]dec-2-ene-8-carboxylic acid-(2-chloro-5-trifluoromethylphenyl)amide], in that order: 8.37%, 43.3%, -0.66% and 2.79%.
For `CC(C)(C)c1ccc(NC(=O)N2CCC3(CC2)CC(C(=O)N2CCN(c4ncccc4C(F)(F)F)CC2)=NO3)cc1` [Example 228, 3-[4-(3-trifluoromethylpyridin-2-yl)piperazine-1-carbonyl]-1-oxa-2,8-diazaspiro[4.5]dec-2-ene-8-carboxylic acid-(4-tert-butylphenyl)amide], in that order: 48.1%, 100%, 7.07% and 17.2%.
In the same order, the values of `O=C(Nc1ccc(Cl)cc1)N1CCC2(CC1)CC(C(=O)N1CCN(c3ncccc3Cl)CC1)=NO2` [Example 51, 3-[4-(3-chloropyridin-2-yl)piperazine-1-carbonyl]-1-oxa-2,8-diazaspiro[4.5]dec-2-ene-8-carboxylic acid-(4-chlorophenyl)amide] are 63.4%, 98.8%, 13.2% and 18.6%.
With `COc1cccc(NC(=O)N2CCC3(CC2)CC(C(=O)N2CCN(c4ncccc4Cl)CC2)=NO3)c1` [Example 17, 3-[4-(3-chloropyridin-2-yl)piperazine-1-carbonyl]-1-oxa-2,8-diazaspiro[4.5]dec-2-ene-8-carboxylic acid-(3-methoxyphenyl)amide], the inhibition at 10 µM in test [1] (setting [3]) is 53.7%; in test [2] (setting [3]), 46.9%. The activation at 10 µM in test [1] (setting [4]) is 19.5%; in test [2] (setting [4]), 19.8%.
In the case of `O=C(Nc1cccc(C(F)(F)F)c1)N1CCC2(CC1)CC(C(=O)N1CCN(c3ncccc3Cl)CC1)=NO2` [Example 68, 3-[4-(3-chloropyridin-2-yl)piperazine-1-carbonyl]-1-oxa-2,8-diazaspiro[4.5]dec-2-ene-8-carboxylic acid-(3-trifluoromethylphenyl)amide], the inhibition at 10 µM in test [1] (setting [3]) was 24.9%; in test [2] (setting [3]), 58.1%. Moreover, the activation at 10 µM in test [1] (setting [4]) worked out at 16.4%; in test [2] (setting [4]), 6.55%.
Turning to `O=C(Nc1ccc(C(F)(F)F)cc1)N1CCC2(CC1)CC(C(=O)N1CCN(c3ncccc3Cl)CC1)=NO2` [Example 71, 3-[4-(3-chloropyridin-2-yl)piperazine-1-carbonyl]-1-oxa-2,8-diazaspiro[4.5]dec-2-ene-8-carboxylic acid-(4-trifluoromethylphenyl)amide], the inhibition at 10 µM in test [1] (setting [3]) came to 42%; in test [2] (setting [3]), 57.2%. The activation at 10 µM came to 34.7% in test [1] (setting [4]) and 31.2% in test [2] (setting [4]).
In the case of `CC(C)c1ccc(NC(=O)N2CCC3(CC2)CC(C(=O)N2CCN(c4ncccc4Cl)CC2)=NO3)cc1` [Example 63, 3-[4-(3-chloropyridin-2-yl)piperazine-1-carbonyl]-1-oxa-2,8-diazaspiro[4.5]dec-2-ene-8-carboxylic acid-(4-isopropylphenyl)amide], the inhibition at 10 µM in test [1] (setting [3]) came out at 15.8%; in test [2] (setting [3]), 78.9%. For the same compound, the activation at 10 µM in test [1] (setting [4]) is 2.59%; in test [2] (setting [4]), 24.5%.

By inhibition is commonly meant the drop in the measured response relative to a control, in per cent.
